Species: Rattus norvegicus
Test: DrugMatrix - Regimen: Daily Repeat
Format: toxicity, organism-based, Sprague-Dawley
Set-up: regimen Daily Repeat, gender Male, age 6-8 weeks
Details: in vivo, po, route oral GAVAGE, vehicle 100 % WATER; for ABSOLUTE BASOPHIL / ABSOLUTE EOSINOPHIL / ABSOLUTE LYMPHOCYTE / ABSOLUTE MONOCYTE / ABSOLUTE SEGMENTED NEUTROPHIL / BASOPHIL / EOSINOPHIL / ERYTHROCYTE COUNT / HEMATOCRIT / HEMOGLOBIN / LEUKOCYTE COUNT / LYMPHOCYTE / MEAN CORPUSCULAR HEMOGLOBIN / MEAN CORPUSCULAR HEMOGLOBIN CONCENTRATION / MEAN CORPUSCULAR VOLUME / MONOCYTE / NEUTROPHIL / NUCLEATED RED BLOOD CELLS / PLATELET COUNT: tissue Blood; for ALANINE AMINOTRANSFERASE / ALBUMIN / ALKALINE PHOSPHATASE / ASPARTATE AMINOTRANSFERASE / BLOOD UREA NITROGEN / CARBON DIOXIDE / CHLORIDE / CHOLESTEROL / CREATINE PHOSPHOKINASE / CREATININE / GLUCOSE / LACTATE DEHYDROGENASE / LIPASE / PHOSPHORUS / POTASSIUM / SODIUM / TOTAL BILIRUBIN / TOTAL PROTEIN / URIC ACID: tissue Plasma
[1] = 0 mg/kg, 72 h, dose level Control, time 3 day
[2] = 0 mg/kg, 120 h, dose level Control, time 5 day
[3] = 3 mg/kg, 72 h, dose level Low, time 3 day

CN(C)CC[C@@H](c1ccc(Cl)cc1)c1ccccn1 [DEXCHLORPHENIRAMINE] was tested, and the “ABSOLUTE BASOPHIL” value [1] was 0 CELLS/uL, the “ABSOLUTE EOSINOPHIL” value [1] was 58.83 CELLS/uL and the “ABSOLUTE LYMPHOCYTE” value [1] was 11823.5 CELLS/uL. For the same compound, the “ABSOLUTE MONOCYTE” value [1] was 169 CELLS/uL, the “ABSOLUTE SEGMENTED NEUTROPHIL” value [1] was 815.33 CELLS/uL and the BASOPHIL [1] was 0%. For the same compound, the EOSINOPHIL [1] was 0.5%, the “ERYTHROCYTE COUNT” value [1] was 5.52 x10E6/uL and the HEMATOCRIT [1] was 35.77%. The HEMOGLOBIN [1] was 14.28 G/DL, the “LEUKOCYTE COUNT” value [1] was 12.87 x10E3/uL and the LYMPHOCYTE [1] was 91.67%. For the same compound, the “MEAN CORPUSCULAR HEMOGLOBIN” value [1] was 25.92 pg, the “MEAN CORPUSCULAR HEMOGLOBIN CONCENTRATION” value [1] was 39.95 G/DL and the “MEAN CORPUSCULAR VOLUME” value [1] was 64.85 fL. The MONOCYTE [1] was 1.33%, the NEUTROPHIL [1] was 6.5% and the “NUCLEATED RED BLOOD CELLS” value [1] was 0 /100WBC. For the same compound, the “PLATELET COUNT” value [1] was 1246.17 x10E3/uL, the “ALANINE AMINOTRANSFERASE” value [1] was 66 u/L and the ALBUMIN [1] was 4.25 G/DL. The “ALKALINE PHOSPHATASE” value [1] was 416 u/L, the “ASPARTATE AMINOTRANSFERASE” value [1] was 106.17 u/L and the “BLOOD UREA NITROGEN” value [1] was 12.67 mg/dL. The “CARBON DIOXIDE” value [1] was 31.83 mmol/L, the CHLORIDE [1] was 102.5 MEQ/L and the CHOLESTEROL [1] was 69 mg/dL. The “CREATINE PHOSPHOKINASE” value [1] was 601.83 u/L, the CREATININE [1] was 0.18 mg/dL and the GLUCOSE [1] was 154.5 mg/dL. The “LACTATE DEHYDROGENASE” value [1] was 301.83 u/L, the LIPASE [1] was 11.17 u/L and the PHOSPHORUS [1] was 12.08 mg/dL. For the same compound, the POTASSIUM [1] was 6.12 MEQ/L, the SODIUM [1] was 145.2 MEQ/L and the “TOTAL BILIRUBIN” value [1] was 0.17 mg/dL. The “TOTAL PROTEIN” value [1] was 6.1 G/DL, the “URIC ACID” value [1] was 1.57 mg/dL and the “ABSOLUTE BASOPHIL” value [2] was 0 CELLS/uL. The “ABSOLUTE EOSINOPHIL” value [2] was 19.33 CELLS/uL, the “ABSOLUTE LYMPHOCYTE” value [2] was 12577.83 CELLS/uL and the “ABSOLUTE MONOCYTE” value [2] was 106.33 CELLS/uL. For the same compound, the “ABSOLUTE SEGMENTED NEUTROPHIL” value [2] was 896.5 CELLS/uL, the BASOPHIL [2] was 0% and the EOSINOPHIL [2] was 0.17%. The “ERYTHROCYTE COUNT” value [2] was 5.84 x10E6/uL, the HEMATOCRIT [2] was 36.88% and the HEMOGLOBIN [2] was 14.48 G/DL. The “LEUKOCYTE COUNT” value [2] was 13.6 x10E3/uL, the LYMPHOCYTE [2] was 92.17% and the “MEAN CORPUSCULAR HEMOGLOBIN” value [2] was 24.85 pg. For the same compound, the “MEAN CORPUSCULAR HEMOGLOBIN CONCENTRATION” value [2] was 39.3 G/DL, the “MEAN CORPUSCULAR VOLUME” value [2] was 63.23 fL and the MONOCYTE [2] was 0.83%. For the same compound, the NEUTROPHIL [2] was 6.83%, the “NUCLEATED RED BLOOD CELLS” value [2] was 0 /100WBC and the “PLATELET COUNT” value [2] was 1223.5 x10E3/uL. The “ALANINE AMINOTRANSFERASE” value [2] was 55.33 u/L, the ALBUMIN [2] was 4.08 G/DL and the “ALKALINE PHOSPHATASE” value [2] was 355.5 u/L. For the same compound, the “ASPARTATE AMINOTRANSFERASE” value [2] was 87.67 u/L, the “BLOOD UREA NITROGEN” value [2] was 15.33 mg/dL and the “CARBON DIOXIDE” value [2] was 33.83 mmol/L. For the same compound, the CHLORIDE [2] was 99.67 MEQ/L, the CHOLESTEROL [2] was 72.17 mg/dL and the “CREATINE PHOSPHOKINASE” value [2] was 268.33 u/L. The CREATININE [2] was 0.15 mg/dL, the GLUCOSE [2] was 152.5 mg/dL and the “LACTATE DEHYDROGENASE” value [2] was 212.67 u/L. It also gave an LIPASE [2] of 10.83 u/L, a PHOSPHORUS [2] of 11.65 mg/dL and a POTASSIUM [2] of 6.73 MEQ/L. For the same compound, the SODIUM [2] was 142.43 MEQ/L, the “TOTAL BILIRUBIN” value [2] was 0.23 mg/dL and the “TOTAL PROTEIN” value [2] was 6.07 G/DL. The “URIC ACID” value [2] was 1.7 mg/dL, the “ABSOLUTE BASOPHIL” value [3] was 0 CELLS/uL and the “ABSOLUTE EOSINOPHIL” value [3] was 76 CELLS/uL. For the same compound, the “ABSOLUTE LYMPHOCYTE” value [3] was 10621.67 CELLS/uL, the “ABSOLUTE MONOCYTE” value [3] was 75 CELLS/uL and the “ABSOLUTE SEGMENTED NEUTROPHIL” value [3] was 960.67 CELLS/uL. For the same compound, the BASOPHIL [3] was 0%, the EOSINOPHIL [3] was 0.67% and the “ERYTHROCYTE COUNT” value [3] was 5.43 x10E6/uL. The HEMATOCRIT [3] was 35.8%, the HEMOGLOBIN [3] was 14.27 G/DL and the “LEUKOCYTE COUNT” value [3] was 11.73 x10E3/uL. The LYMPHOCYTE [3] was 90.33%, the “MEAN CORPUSCULAR HEMOGLOBIN” value [3] was 26.27 pg and the “MEAN CORPUSCULAR HEMOGLOBIN CONCENTRATION” value [3] was 39.83 G/DL. For the same compound, the “MEAN CORPUSCULAR VOLUME” value [3] was 65.9 fL, the MONOCYTE [3] was 0.67% and the NEUTROPHIL [3] was 8.33%. The “NUCLEATED RED BLOOD CELLS” value [3] was 0 /100WBC, the “PLATELET COUNT” value [3] was 1343.33 x10E3/uL and the “ALANINE AMINOTRANSFERASE” value [3] was 45.67 u/L. The ALBUMIN [3] was 4.17 G/DL, the “ALKALINE PHOSPHATASE” value [3] was 363.67 u/L and the “ASPARTATE AMINOTRANSFERASE” value [3] was 81 u/L. The “BLOOD UREA NITROGEN” value [3] was 12.67 mg/dL, the “CARBON DIOXIDE” value [3] was 31.67 mmol/L and the CHLORIDE [3] was 102.33 MEQ/L. The CHOLESTEROL [3] was 64 mg/dL, the “CREATINE PHOSPHOKINASE” value [3] was 265.33 u/L and the CREATININE [3] was 0.26 mg/dL. For the same compound, the GLUCOSE [3] was 152.33 mg/dL, the “LACTATE DEHYDROGENASE” value [3] was 198 u/L and the LIPASE [3] was 13.33 u/L. For the same compound, the PHOSPHORUS [3] was 13.23 mg/dL, the POTASSIUM [3] was 6.5 MEQ/L and the SODIUM [3] was 145.03 MEQ/L. For the same compound, the “TOTAL BILIRUBIN” value [3] was 0.13 mg/dL, the “TOTAL PROTEIN” value [3] was 5.87 G/DL and the “URIC ACID” value [3] was 1.57 mg/dL.
